Measured values published in paper PMC8469489, “Effect of Lactic Acid Bacteria on the Pharmacokinetics and Metabolism of Ginsenosides in Mice” (Pharmaceutics, 2021).
Where two headings read alike, the source gives them in different places.

What was measured:
[1] = Pharmacokinetics of ginsenosides after single oral RGE with or without amoxicillin treatment; format: in vivo, mice
Procedure: Male ICR mice (7-weeks-year-old, 30–35 g) were purchased from Samtako Co. (Osan, Kyunggi-do, Korea). Animals were acclimatized for 1 week in an animal facility at Kyungpook National University. Food and water were available ad libitum.
(§1) Before blood sampling, mice were anesthetized using isoflurane (isoflurane vaporizer to 2% with oxygen flow at 0.8 L/min) for 5 min.

[2] = test system: lactic acid bacteria (LAB)
[3] = parameters: method as in PMID 26470874; settings: 10–60 mg, intramuscular injection; cited from earlier work
[4] = Recovery of ginsenosides from urine and feces for 48 h after RGE, amoxicillin with or without LAB; settings: feces 48 h after single oral RGE 2 g/kg; Amoxicillin + LAB vs amoxicillin
Procedure: (§2) Mice received amoxicillin (n = 12, 20 mg/kg, dissolved in water at 2 mL/kg, twice daily) for 3 days via oral gavage. From the 4th day, mice from the LAB + amoxicillin treatment group received LAB (2 g/kg suspended in water at 2 mL/kg, once daily) for 7 days via oral gavage. Mice from the amoxicillin treatment group received water (2 mL/kg, once daily) for 7 days via oral gavage.

[5] = test system: lactic acid bacteria (LAB); assay: Incubation of single ginsenoside with LAB (formation rate of metabolite ginsenoside); format: in vitro ADME; settings: 7 days, 37 °C, MRS broth
Procedure: To compare the involvement of LAB on individual ginsenoside, an aliquot (10 μL) of each ginsenoside stock solution (10 mM in methanol) was mixed with autoclaved MRS broth (550 mg/10 mL in distilled water) and added 2 g of LAB (contained 1 billion CFU). Then, the mixture was incubated for 7 days in a shaking incubator at 37 °C and 300 rpm. For the analysis of ginsenosides, 0.2 mL aliquot of incubation mixture was collected every 24 h for 7 days. The incubation medium was diluted 100-fold with distilled water and stored at −80 °C. For the ginsenoside analysis, 200 μL of an IS solution (0.05 ng/mL berberine in methanol) was added to 30 μL of 100-fold diluted samples.

[6] = Pharmacokinetics of ginsenosides after single oral RGE after amoxicillin with or without repeated LAB treatment; settings: single oral RGE 2 g/kg; for AUC: Amoxicillin + LAB (LAB 2 g/kg once daily 7 days), AUC 0 to 48 h; for Cmax / Half-Life / MRT / Tmax: Amoxicillin + LAB
Procedure: as §2
Blood sampling was performed using a sparse sampling method via the right or left retro-orbital vein under isoflurane anesthesia at 0, 2, 4, and 8 h after the RGE administration through the heparinized capillary tube. […] After centrifugation of the blood samples at 10,000× g for 1 min, 30 μL aliquots of plasma were stored at −80 °C until the analysis of the ginsenosides. Subsequent protocols were identical to the amoxicillin treated group.
Pharmacokinetic parameters were calculated using WinNonlin (version 5.1, Pharsight, Mountain View, CA, USA) by a non-compartmental analysis.

[7] = Recovery of ginsenosides from urine and feces for 48 h after RGE, amoxicillin vs control; settings: for Fecal recovery, change by the amoxicillin treatment: feces 48 h after single oral RGE 2 g/kg, vs control
Procedure: Aliquots (200 μL) of an IS (0.05 ng/mL berberine in methanol) were added to 30 μL of plasma or urine samples. Aliquots (600 μL) of an IS methanol solution containing 0.05 ng/mL berberine were added to 100 μL of 10% feces homogenate samples. […] After centrifugation, 200 μL of the supernatant was transferred to a clean tube and dried under a nitrogen stream at 40 °C. The residue was reconstituted using 100 μL of 70% methanol supplemented with 0.1% formic acid, and a 10-μL aliquot was injected into the LC–MS/MS system.

[8] = test system: lactic acid bacteria (LAB); assay: In vitro RGE fermentation with LAB; settings: for Increase of ginsenoside by fermentation of RGE with LAB: 7 days, relative to the first day
[9] = Plasma amoxicillin concentrations after repeated oral administration of amoxicillin; format: in vivo, mice; settings: at 24, 48, and 72 h after the beginning of amoxicillin treatment (20 mg/kg/day oral, twice daily, 3 days)
Procedure: as §1
The standard calibration curve for amoxicillin was linear in the concentration range of 2–5000 ng/mL for the plasma samples, and the interday and intraday precision and accuracy were <15%.

LAB = test system: LAB; parameters: method as in PMID 15902467; settings: cited from earlier work
[10] = parameters: method as in PMID 27516803, PMID 24235859; settings: cited from earlier work
[11] = parameters: method as in PMID 29375375, PMID 28955238; settings: 100–400 mg of CK, once daily for 9 days; cited from earlier work
[12] = Control, single oral RGE 2 g/kg, plasma

For CC(C)=CCC[C@](C)(O)[C@H]1CC[C@]2(C)[C@@H]1[C@H](O)C[C@@H]1[C@@]3(C)CC[C@H](O)C(C)(C)[C@@H]3CC[C@]12C [PPD, 20(S)-proptopanaxadiol], the Half-Life ([1]; mouse, in vivo, po, 2 g/kg) was 7.9 ± 1.8 h, the MRT ([1]; mouse, in vivo, po, 2 g/kg) was 12.6 ± 4.7 h and the “Alteration of ginsenoside by fermentation of RGE with LAB” value [2] was “significantly increased”.

For CC(C)=CCC[C@](C)(O)[C@H]1CC[C@]2(C)[C@@H]1[C@H](O)C[C@@H]1[C@@]3(C)CC[C@H](O[C@@H]4O[C@H](CO)[C@@H](O)[C@H](O)[C@H]4O[C@@H]4O[C@H](CO)[C@@H](O)[C@H](O)[C@H]4O)C(C)(C)[C@@H]3CC[C@]12C [GRg3], the “Increase of plasma exposure over the 6-fold dose range” value [3] is given as 7.3 fold, the “Fecal recovery, change by LAB treatment” value [4] is given as “significantly decreased” and the “Metabolite formation on incubation of single ginsenoside with LAB” value [5] is given as “GRh2 and PPD were produced”. It also gave an AUC [6] of 0.0253 ± 0.0106 µg·h/mL, a Cmax [6] of 4.8 ± 1.9 ng/mL and a Half-Life [6] of 5.3 ± 1.1 h. For the same molecule, the MRT [6] was 3.5 ± 0.9 h, the Tmax [6] was 2.5 ± 1.0 h and the “Detection in mouse plasma following repeated LAB administration in addition to amoxicillin” value [6] was “detected”. For the same molecule, the “Detection in plasma, control mice and amoxicillin group” value [6] was “not detected”, the “Plasma exposure / pharmacokinetic parameters, LAB treatment compared with amoxicillin group” value [6] was “increased” and the “Fecal recovery, change by the amoxicillin treatment” value [7] was “increased”. The “Increase of ginsenoside by fermentation of RGE with LAB” value [8] was “about 30%”.

In the case of CC1(C)S[C@@H]2[C@H](NC(=O)[C@H](N)c3ccc(O)cc3)C(=O)N2[C@H]1C(=O)O [amoxicillin], the Plasma amoxicillin concentration [9] is listed as 0.9 to 1.8 µg/mL and the “Concentration of amoxicillin that must be maintained to inhibit the growth of LAB” value (LAB) is listed as ≤ 2 µg/mL.

In the case of CC(C)=CCC[C@](C)(O[C@@H]1O[C@H](CO)[C@@H](O)[C@H](O)[C@H]1O)[C@H]1CC[C@]2(C)[C@@H]1[C@H](O)C[C@@H]1[C@@]3(C)CC[C@H](O)C(C)(C)[C@@H]3CC[C@]12C [CK, 20(S)-compound K], the “Plasma concentration of CK, Cmax” value ([10]; subjects who received 3 g fermented RGE (contains 10.9 mg CK)) is given as 254.5 ng/mL, the “Plasma concentration of CK, Cmax” value ([10]; subjects who received RGE (does not contain CK)) is given as 8.4 to 24.8 ng/mL and the “Fecal recovery, change by LAB treatment” value [4] is given as “significantly increased”. The Safety and tolerability [11] was “safe and well-tolerated”, the Cmax [1, 12] was 3.6 ± 1.4 ng/mL and the Half-Life [1, 12] was 13.2 ± 3.2 h. It also gave an MRT [1, 12] of 13.9 ± 5.3 h, a Tmax [1, 12] of 8.0 ± 0.0 h and an AUC ([1]; Control, single oral RGE 2 g/kg, plasma, AUC 0 to 48 h, n = 3) of 0.06994 ± 0.0378 µg·h/mL. For the same molecule, the “Detection in plasma, amoxicillin treatment group” value ([1]; single oral RGE 2 g/kg) was “not seen”, the “Detection in plasma, control group” value ([1]; single oral RGE 2 g/kg) was “detected” and the AUC [6] was 0.2498 ± 0.103 µg·h/mL. For the same molecule, the Cmax [6] was 9.3 ± 2.9 ng/mL, the Half-Life [6] was 12.0 ± 5.0 h and the MRT [6] was 13.7 ± 6.2 h. For the same molecule, the Tmax [6] was 8.0 ± 0.0 h, the “Detection in mouse plasma following repeated LAB administration in addition to amoxicillin” value [6] was “detected” and the “Plasma exposure / pharmacokinetic parameters, LAB treatment compared with amoxicillin group” value [6] was “increased”. The “Fecal recovery, change by the amoxicillin treatment” value [7] was “significantly decreased”, the “Ginsenosides identified in urine” value ([7]; urine 48 h after single oral RGE 2 g/kg) was “identified in urine” and the “Alteration of ginsenoside by fermentation of RGE with LAB” value ([8]; 7 days incubation) was “significantly increased”. For the same molecule, the “Increase of ginsenoside by fermentation of RGE with LAB” value [8] was “about 30%”.
